From PubChem BioAssay AID1259407 (Chemical Carcinogenesis Research Information System (CCRIS), 2018)
Calls of active or inactive are those of the source. No rule for the calls is given here.

Tested on: CCRIS mutagenicity, Ames/micronucleus/aberration tests
Assay: CCRIS mutagenicity studies
[1] = Test System: AMES SALMONELLA TYPHIMURIUM, Strain/Indicator: TA98, Metabolic Activation: NONE, Method: STANDARD PLATE
[2] = Test System: AMES SALMONELLA TYPHIMURIUM, Strain/Indicator: TA98, Metabolic Activation: RAT, LIVER, S-9, AROCLOR 1254, Method: STANDARD PLATE
[3] = Test System: AMES SALMONELLA TYPHIMURIUM, Strain/Indicator: TA100, Metabolic Activation: NONE, Method: STANDARD PLATE
[4] = Test System: AMES SALMONELLA TYPHIMURIUM, Strain/Indicator: TA100, Metabolic Activation: RAT, LIVER, S-9, AROCLOR 1254, Method: STANDARD PLATE
[5] = Test System: AMES SALMONELLA TYPHIMURIUM, Strain/Indicator: TA1535, Metabolic Activation: NONE, Method: STANDARD PLATE
[6] = Test System: AMES SALMONELLA TYPHIMURIUM, Strain/Indicator: TA1535, Metabolic Activation: RAT, LIVER, S-9, AROCLOR 1254, Method: STANDARD PLATE
[7] = Test System: AMES SALMONELLA TYPHIMURIUM, Strain/Indicator: TA1537, Metabolic Activation: NONE, Method: STANDARD PLATE
[8] = Test System: AMES SALMONELLA TYPHIMURIUM, Strain/Indicator: TA1537, Metabolic Activation: RAT, LIVER, S-9, AROCLOR 1254, Method: STANDARD PLATE
[9] = Test System: AMES SALMONELLA TYPHIMURIUM, Strain/Indicator: TA1538, Metabolic Activation: NONE, Method: STANDARD PLATE
[10] = Test System: AMES SALMONELLA TYPHIMURIUM, Strain/Indicator: TA1538, Metabolic Activation: RAT, LIVER, S-9, AROCLOR 1254, Method: STANDARD PLATE
[11] = Test System: AMES SALMONELLA TYPHIMURIUM, Strain/Indicator: TA102, Metabolic Activation: NONE, Method: PREINCUBATION

COc1cc(N)cc(OC)c1N
mutagenic call [1]: inactive; negative
mutagenic call [2]: inactive; negative
mutagenic call [3]: inactive; negative
mutagenic call [4]: inactive; negative
mutagenic call [5]: inactive; negative
mutagenic call [6]: inactive; negative
mutagenic call [7]: inactive; negative
mutagenic call [8]: inactive; negative
mutagenic call [9]: inactive; negative
mutagenic call [10]: inactive; negative

C[N+]1=CC=C(c2ccccc2)CC1
mutagenic call (Test System: AMES SALMONELLA TYPHIMURIUM, Strain/Indicator: TA100, Metabolic Activation: NONE, Method: PREINCUBATION): active; positive
mutagenic call [11]: inactive; negative

CC(=O)N[C@@H](CS/C(Cl)=C/Cl)C(=O)O
mutagenic call (Test System: AMES SALMONELLA TYPHIMURIUM, Strain/Indicator: TA2638, Metabolic Activation: NONE, Method: PREINCUBATION): active; positive
mutagenic call (Test System: AMES SALMONELLA TYPHIMURIUM, Strain/Indicator: TA2638, Metabolic Activation: RAT, KIDNEY, CYTOSOL, Method: PREINCUBATION): active; positive

Cc1cc(C(=O)NNCc2ccccc2)no1
mutagenic call [1]: inactive; negative
mutagenic call [2]: inactive; negative
mutagenic call [3]: inactive; negative
mutagenic call [4]: inactive; negative
mutagenic call [5]: inactive; negative
mutagenic call [6]: inactive; negative
mutagenic call [7]: inactive; negative
mutagenic call [8]: inactive; negative

NNc1ccn([C@@H]2O[C@H](CO)[C@@H](O)[C@H]2O)c(=O)n1
mutagenic call (Test System: CHINESE HAMSTER V-79, Strain/Indicator: V-79/6-THIOGUANINE, Metabolic Activation: NONE, Method: REPLATING): active; positive

O=C(O)O
mutagenic call (Test System: AMES SALMONELLA TYPHIMURIUM, Strain/Indicator: TA97, Metabolic Activation: NONE, Method: PREINCUBATION): inactive; negative
mutagenic call (Test System: AMES SALMONELLA TYPHIMURIUM, Strain/Indicator: TA97, Metabolic Activation: RAT, LIVER, S-9, AROCLOR 1254, Method: PREINCUBATION): inactive; negative
mutagenic call (Test System: AMES SALMONELLA TYPHIMURIUM, Strain/Indicator: TA98, Metabolic Activation: HAMSTER, LIVER, S-9, AROCLOR 1254, Method: STANDARD PLATE): inactive; negative
mutagenic call [1]: inactive; negative
mutagenic call [2]: inactive; negative
mutagenic call (Test System: AMES SALMONELLA TYPHIMURIUM, Strain/Indicator: TA100, Metabolic Activation: HAMSTER, LIVER, S-9, AROCLOR 1254, Method: STANDARD PLATE): inactive; negative
mutagenic call [3]: inactive; negative
mutagenic call [4]: inactive; negative
mutagenic call [11]: inactive; negative
mutagenic call (Test System: AMES SALMONELLA TYPHIMURIUM, Strain/Indicator: TA102, Metabolic Activation: RAT, LIVER, S-9, AROCLOR 1254, Method: PREINCUBATION): inactive; negative
mutagenic call (Test System: AMES SALMONELLA TYPHIMURIUM, Strain/Indicator: TA1535, Metabolic Activation: HAMSTER, LIVER, S-9, AROCLOR 1254, Method: STANDARD PLATE): inactive; negative
mutagenic call [5]: inactive; negative
mutagenic call [6]: inactive; negative
mutagenic call (Test System: AMES SALMONELLA TYPHIMURIUM, Strain/Indicator: TA1537, Metabolic Activation: HAMSTER, LIVER, S-9, AROCLOR 1254, Method: STANDARD PLATE): inactive; negative
mutagenic call [7]: inactive; negative
mutagenic call [8]: inactive; negative
mutagenic call (Test System: AMES SALMONELLA TYPHIMURIUM, Strain/Indicator: TA1538, Metabolic Activation: HAMSTER, LIVER, S-9, AROCLOR 1254, Method: STANDARD PLATE): inactive; negative
mutagenic call [9]: inactive; negative
mutagenic call [10]: inactive; negative
mutagenic call (Test System: CHINESE HAMSTER V-79, Strain/Indicator: V-79/6-THIOGUANINE, Metabolic Activation: NONE): active; positive
mutagenic call (Test System: CHINESE HAMSTER V-79, Strain/Indicator: V-79/6-THIOGUANINE, Metabolic Activation: S-9): inactive; negative
mutagenic call (Test System: Mouse lymphoma, Strain/Indicator: L5178Y (tk+/tk-), Metabolic Activation: None, Method: Suspension/plate): inactive; negative
mutagenic call (Test System: Mouse lymphoma, Strain/Indicator: L5178Y (tk+/tk-), Metabolic Activation: Rat, Liver, S-9, Aroclor 1254, Method: Suspension/plate): inactive; negative

Fc1ccc(F)c2ncccc12
mutagenic call (Test System: AMES SALMONELLA TYPHIMURIUM, Strain/Indicator: TA100, Metabolic Activation: RAT LIVER S-9, PHENOBARBITAL AND 5,6-BENZOFLAVONE, Method: PREINCUBATION): active; positive
mutagenic call (Test System: AMES SALMONELLA TYPHIMURIUM, Strain/Indicator: TA100, Metabolic Activation: RAT, LIVER, S-9, PHENOBARBITAL AND 5,6-BENZOFLAVONE, Method: PREINCUBATION): active; positive

C=C(C)C(=O)OCC(OC1=CCCC1)OC1=CCCC1
mutagenic call (Test System: MOUSE LYMPHOMA, Strain/Indicator: L5178Y (TK+/TK-), Metabolic Activation: NONE, Method: SUSPENSION/PLATE): inactive; negative

CC(=O)Nc1cc2c(cc1OC(=O)c1ccccc1)-c1ccccc1C2
mutagenic call [2]: inactive; negative

FC(F)C(F)C(F)(F)F (stereo not given)
mutagenic call (Test System: AMES SALMONELLA TYPHIMURIUM, Strain/Indicator: TA97, Metabolic Activation: NONE, Method: CLOSED GLASS VESSEL): inactive; negative
mutagenic call (Test System: AMES SALMONELLA TYPHIMURIUM, Strain/Indicator: TA97, Metabolic Activation: RAT LIVER S-9, AROCLOR 1254, Method: CLOSED GLASS VESSEL): inactive; negative
mutagenic call (Test System: AMES SALMONELLA TYPHIMURIUM, Strain/Indicator: TA98, Metabolic Activation: NONE, Method: CLOSED GLASS VESSEL): inactive; negative
mutagenic call (Test System: AMES SALMONELLA TYPHIMURIUM, Strain/Indicator: TA98, Metabolic Activation: RAT LIVER S-9, AROCLOR 1254, Method: CLOSED GLASS VESSEL): inactive; negative
mutagenic call (Test System: AMES SALMONELLA TYPHIMURIUM, Strain/Indicator: TA100, Metabolic Activation: NONE, Method: CLOSED GLASS VESSEL): inactive; negative
mutagenic call (Test System: AMES SALMONELLA TYPHIMURIUM, Strain/Indicator: TA100, Metabolic Activation: RAT LIVER S-9, AROCLOR 1254, Method: CLOSED GLASS VESSEL): inactive; negative
mutagenic call (Test System: AMES SALMONELLA TYPHIMURIUM, Strain/Indicator: TA1535, Metabolic Activation: NONE, Method: CLOSED GLASS VESSEL): inactive; negative
mutagenic call (Test System: AMES SALMONELLA TYPHIMURIUM, Strain/Indicator: TA1535, Metabolic Activation: RAT LIVER S-9, AROCLOR 1254, Method: CLOSED GLASS VESSEL): inactive; negative
mutagenic call (Test System: ESCHERICHIA COLI, Strain/Indicator: WP2 UVR A, Metabolic Activation: NONE, Method: CLOSED GLASS VESSEL): inactive; negative
mutagenic call (Test System: ESCHERICHIA COLI, Strain/Indicator: WP2 UVR A, Metabolic Activation: RAT LIVER S-9, AROCLOR 1254, Method: CLOSED GLASS VESSEL): inactive; negative
